From patent US11185078B2 (priority 2016, dated 2021)
Where a SMILES comes first, the peptide text is derived from it. Bridges are numbered along the chain shown (N, C = ends). The star is where a group is joined. ξ: configuration not given here. Pentadecanoyl(3ξ-OH,15-Gua) = N=C(N)NCCCCCCCCCCCCC(O)CC(=O)*

Assays:
Type in all cases: in vivo
[1] = test system: Phytophthora infestans (PHYTIN); details: for % efficacy (% fungal attack) PHYTIN: 360 ppm, in planta
[2] = test system: Fusarium graminearum (GIBBZE); details: 360 ppm
[3] = test system: Septoria tritici (SEPTTR); details: 360 ppm, protective application

SMILES: CCC(C)C1NC(=O)C(NC(=O)CC(O)CCCCCCCCCCCCNC(=N)N)C(C)OC(=O)C(C)NC(=O)C(CC(N)=O)NC(=O)C(C(C)O)NC(=O)C(Cc2ccc(O)cc2)NC1=O (stereo not drawn) [Compound 1A, fusaricidin 1A] ({Pentadecanoyl(3ξ-OH,15-Gua)}-TIYTNA; ester 1-C; configuration not given here)
- % efficacy (% fungal attack) PHYTIN [1]: 100%
- % efficacy (% fungal attack) GIBBZE ([2]; in planta): 49%
- % efficacy (% fungal attack), head blight on wheat caused by Fusarium graminearum ([2]; protective application): 49%

SMILES: CCC(C)C1NC(=O)C(NC(=O)CC(O)CCCCCCCCCCCCNC(=N)N)C(C)OC(=O)C(C)NC(=O)C(CCC(N)=O)NC(=O)C(C(C)O)NC(=O)C(Cc2ccc(O)cc2)NC1=O (stereo not drawn) [Compound 1B, fusaricidin 1B] ({Pentadecanoyl(3ξ-OH,15-Gua)}-TIYTQA; ester 1-C; configuration not given here)
- % efficacy (% fungal attack), late blight on tomato caused by Phytophthora infestans ([1]; 7.2 ppm, protective application): 44%
- % efficacy (% fungal attack) PHYTIN [1]: 100%
- % efficacy (% fungal attack), head blight on wheat caused by Septoria tritici [3]: 80%
